# How the values were obtained:
# [1] = biological target: Dual specificity protein kinase CLK2 (Homo sapiens, UniProt P49760)
# [2] = biological target: Tyrosine-protein kinase BTK (Homo sapiens, UniProt Q06187)
# [3] = biological target: Serine/threonine-protein kinase 33 (Homo sapiens, UniProt Q9BYT3)
# [4] = biological target: T1, NUAK family SNF1-like kinase 1 (Homo sapiens, UniProt O60285)
# T1 sequence (O60285 whole entry): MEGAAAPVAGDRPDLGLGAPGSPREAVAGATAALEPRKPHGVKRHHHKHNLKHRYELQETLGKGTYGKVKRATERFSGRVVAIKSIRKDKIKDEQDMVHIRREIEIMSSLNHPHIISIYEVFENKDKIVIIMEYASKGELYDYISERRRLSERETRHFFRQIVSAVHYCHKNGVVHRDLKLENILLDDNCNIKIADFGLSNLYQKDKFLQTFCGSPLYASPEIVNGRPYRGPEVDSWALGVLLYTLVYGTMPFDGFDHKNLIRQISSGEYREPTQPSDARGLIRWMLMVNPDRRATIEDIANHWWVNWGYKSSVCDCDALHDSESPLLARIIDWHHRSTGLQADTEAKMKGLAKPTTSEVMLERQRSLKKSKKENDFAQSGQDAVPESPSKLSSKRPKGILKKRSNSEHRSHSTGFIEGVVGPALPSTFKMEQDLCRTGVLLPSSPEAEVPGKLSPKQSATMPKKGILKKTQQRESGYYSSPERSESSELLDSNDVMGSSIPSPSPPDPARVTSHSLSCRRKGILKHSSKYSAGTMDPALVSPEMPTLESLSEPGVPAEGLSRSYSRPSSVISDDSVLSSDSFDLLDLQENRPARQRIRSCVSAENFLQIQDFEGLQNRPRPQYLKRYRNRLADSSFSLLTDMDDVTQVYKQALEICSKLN
# [5] = biological target: Tyrosine-protein kinase ABL1 (Homo sapiens, UniProt P00519)
# Tyrosine-protein kinase ABL1, sequence (P00519 whole entry): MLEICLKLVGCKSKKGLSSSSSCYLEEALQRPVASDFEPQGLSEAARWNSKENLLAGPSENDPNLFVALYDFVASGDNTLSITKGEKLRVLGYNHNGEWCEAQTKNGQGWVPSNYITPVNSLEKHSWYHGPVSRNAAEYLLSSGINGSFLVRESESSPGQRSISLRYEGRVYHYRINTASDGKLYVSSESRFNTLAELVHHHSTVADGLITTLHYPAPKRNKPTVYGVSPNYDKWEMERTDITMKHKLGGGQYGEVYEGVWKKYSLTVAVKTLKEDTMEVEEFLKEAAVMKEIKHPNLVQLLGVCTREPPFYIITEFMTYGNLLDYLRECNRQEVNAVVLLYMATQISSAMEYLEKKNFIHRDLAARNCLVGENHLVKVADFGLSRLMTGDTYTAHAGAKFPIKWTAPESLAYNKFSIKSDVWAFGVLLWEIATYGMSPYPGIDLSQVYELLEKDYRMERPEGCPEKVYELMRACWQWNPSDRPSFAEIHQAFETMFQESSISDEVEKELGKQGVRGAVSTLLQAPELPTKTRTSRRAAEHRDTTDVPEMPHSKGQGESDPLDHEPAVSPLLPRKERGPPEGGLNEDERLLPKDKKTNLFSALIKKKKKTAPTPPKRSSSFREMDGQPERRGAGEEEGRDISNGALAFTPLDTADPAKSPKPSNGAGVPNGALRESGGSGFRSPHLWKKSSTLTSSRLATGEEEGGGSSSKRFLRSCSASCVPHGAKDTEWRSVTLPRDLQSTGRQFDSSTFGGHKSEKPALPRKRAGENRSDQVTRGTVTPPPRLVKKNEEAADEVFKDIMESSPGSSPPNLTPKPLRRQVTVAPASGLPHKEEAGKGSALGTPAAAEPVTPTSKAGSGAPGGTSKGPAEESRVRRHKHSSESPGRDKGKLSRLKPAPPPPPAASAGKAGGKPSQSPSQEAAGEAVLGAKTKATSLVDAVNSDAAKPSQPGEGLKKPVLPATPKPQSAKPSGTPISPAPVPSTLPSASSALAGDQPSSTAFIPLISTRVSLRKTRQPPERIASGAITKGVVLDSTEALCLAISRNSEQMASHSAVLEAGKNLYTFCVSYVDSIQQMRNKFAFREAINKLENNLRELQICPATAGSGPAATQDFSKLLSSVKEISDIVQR
# [6] = biological target: T2, Dual specificity mitogen-activated protein kinase kinase 6 (Homo sapiens, UniProt P52564)
# T2 sequence (P52564 whole entry): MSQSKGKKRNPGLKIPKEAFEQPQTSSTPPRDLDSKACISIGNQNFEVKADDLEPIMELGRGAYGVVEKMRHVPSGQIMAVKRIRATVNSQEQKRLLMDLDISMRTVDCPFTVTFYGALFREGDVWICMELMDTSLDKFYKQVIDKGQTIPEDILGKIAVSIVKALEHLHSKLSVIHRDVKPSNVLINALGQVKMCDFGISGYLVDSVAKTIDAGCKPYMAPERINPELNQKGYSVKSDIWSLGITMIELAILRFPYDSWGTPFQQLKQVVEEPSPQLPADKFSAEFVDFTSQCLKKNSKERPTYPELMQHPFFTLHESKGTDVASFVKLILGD
# [7] = biological target: Phosphatidylinositol 4-phosphate 5-kinase type-1 alpha (Homo sapiens, UniProt Q99755)
# Phosphatidylinositol 4-phosphate 5-kinase type-1 alpha, sequence (Q99755 whole entry): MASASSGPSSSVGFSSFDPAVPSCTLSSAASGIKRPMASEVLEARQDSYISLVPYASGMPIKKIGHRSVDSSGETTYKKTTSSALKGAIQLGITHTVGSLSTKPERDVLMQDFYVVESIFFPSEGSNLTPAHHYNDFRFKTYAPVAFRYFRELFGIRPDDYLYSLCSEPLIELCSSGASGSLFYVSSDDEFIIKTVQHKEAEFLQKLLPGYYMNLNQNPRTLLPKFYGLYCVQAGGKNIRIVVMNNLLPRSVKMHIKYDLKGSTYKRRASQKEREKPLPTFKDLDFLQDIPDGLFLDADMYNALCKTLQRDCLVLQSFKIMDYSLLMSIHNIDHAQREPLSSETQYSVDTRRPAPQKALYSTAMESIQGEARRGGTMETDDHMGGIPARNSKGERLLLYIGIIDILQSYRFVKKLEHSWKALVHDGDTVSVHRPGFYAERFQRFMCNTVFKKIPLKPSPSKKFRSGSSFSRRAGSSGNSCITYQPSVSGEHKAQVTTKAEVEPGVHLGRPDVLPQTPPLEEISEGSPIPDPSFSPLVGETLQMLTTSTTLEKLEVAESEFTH
# [8] = biological target: Protein-tyrosine kinase 2-beta (Homo sapiens, UniProt Q14289)
# Protein-tyrosine kinase 2-beta, sequence (Q14289 whole entry, the tested form may be a part): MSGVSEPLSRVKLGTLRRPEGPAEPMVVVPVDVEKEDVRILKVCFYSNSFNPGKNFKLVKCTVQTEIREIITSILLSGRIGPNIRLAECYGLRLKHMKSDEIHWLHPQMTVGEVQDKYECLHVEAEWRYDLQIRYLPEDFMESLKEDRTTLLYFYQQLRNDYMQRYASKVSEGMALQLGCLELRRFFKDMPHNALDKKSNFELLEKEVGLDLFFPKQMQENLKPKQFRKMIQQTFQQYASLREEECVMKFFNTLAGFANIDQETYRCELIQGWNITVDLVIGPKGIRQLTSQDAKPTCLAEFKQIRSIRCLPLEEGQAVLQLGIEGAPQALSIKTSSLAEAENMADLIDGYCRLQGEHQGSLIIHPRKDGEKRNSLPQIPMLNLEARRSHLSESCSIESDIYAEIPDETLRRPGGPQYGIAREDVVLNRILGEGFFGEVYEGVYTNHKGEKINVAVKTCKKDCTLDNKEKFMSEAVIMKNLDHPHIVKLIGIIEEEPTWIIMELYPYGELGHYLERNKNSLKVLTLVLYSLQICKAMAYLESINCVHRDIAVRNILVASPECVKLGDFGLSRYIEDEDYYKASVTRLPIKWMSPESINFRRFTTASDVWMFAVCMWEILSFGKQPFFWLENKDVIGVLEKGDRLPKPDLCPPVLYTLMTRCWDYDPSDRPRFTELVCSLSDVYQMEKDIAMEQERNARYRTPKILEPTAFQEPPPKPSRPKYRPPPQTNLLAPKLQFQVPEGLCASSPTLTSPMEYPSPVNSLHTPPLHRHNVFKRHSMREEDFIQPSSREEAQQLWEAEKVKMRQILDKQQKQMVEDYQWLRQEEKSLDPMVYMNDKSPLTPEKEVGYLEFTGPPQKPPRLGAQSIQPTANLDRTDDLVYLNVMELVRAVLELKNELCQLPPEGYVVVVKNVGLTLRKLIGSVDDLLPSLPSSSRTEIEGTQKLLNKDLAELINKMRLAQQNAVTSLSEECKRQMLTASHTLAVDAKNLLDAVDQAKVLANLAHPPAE
# [9] = biological target: T3, Ankyrin repeat and protein kinase domain-containing protein 1 (Homo sapiens, UniProt Q8NFD2)
# T3 sequence (Q8NFD2 whole entry): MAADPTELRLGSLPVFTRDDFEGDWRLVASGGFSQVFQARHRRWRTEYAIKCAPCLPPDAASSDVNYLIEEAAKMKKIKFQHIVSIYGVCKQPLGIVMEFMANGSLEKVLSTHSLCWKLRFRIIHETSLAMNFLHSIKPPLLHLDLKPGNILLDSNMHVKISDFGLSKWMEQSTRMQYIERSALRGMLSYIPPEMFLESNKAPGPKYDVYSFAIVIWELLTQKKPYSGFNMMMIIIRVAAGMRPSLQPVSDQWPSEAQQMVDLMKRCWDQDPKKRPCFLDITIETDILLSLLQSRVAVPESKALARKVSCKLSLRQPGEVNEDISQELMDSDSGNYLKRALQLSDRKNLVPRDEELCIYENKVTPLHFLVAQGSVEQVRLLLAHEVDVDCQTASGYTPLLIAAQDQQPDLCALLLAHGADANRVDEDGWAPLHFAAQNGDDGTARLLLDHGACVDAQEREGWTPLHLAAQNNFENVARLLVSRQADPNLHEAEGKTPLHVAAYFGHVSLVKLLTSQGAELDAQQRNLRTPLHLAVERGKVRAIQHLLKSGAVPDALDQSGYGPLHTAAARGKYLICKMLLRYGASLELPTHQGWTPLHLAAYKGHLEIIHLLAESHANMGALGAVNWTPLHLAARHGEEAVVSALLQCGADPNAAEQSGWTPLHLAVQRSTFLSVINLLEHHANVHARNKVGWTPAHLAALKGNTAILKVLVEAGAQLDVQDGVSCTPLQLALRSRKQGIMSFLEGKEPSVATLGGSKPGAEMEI
# Serine/threonine-protein kinase 33, sequence (Q9BYT3 whole entry): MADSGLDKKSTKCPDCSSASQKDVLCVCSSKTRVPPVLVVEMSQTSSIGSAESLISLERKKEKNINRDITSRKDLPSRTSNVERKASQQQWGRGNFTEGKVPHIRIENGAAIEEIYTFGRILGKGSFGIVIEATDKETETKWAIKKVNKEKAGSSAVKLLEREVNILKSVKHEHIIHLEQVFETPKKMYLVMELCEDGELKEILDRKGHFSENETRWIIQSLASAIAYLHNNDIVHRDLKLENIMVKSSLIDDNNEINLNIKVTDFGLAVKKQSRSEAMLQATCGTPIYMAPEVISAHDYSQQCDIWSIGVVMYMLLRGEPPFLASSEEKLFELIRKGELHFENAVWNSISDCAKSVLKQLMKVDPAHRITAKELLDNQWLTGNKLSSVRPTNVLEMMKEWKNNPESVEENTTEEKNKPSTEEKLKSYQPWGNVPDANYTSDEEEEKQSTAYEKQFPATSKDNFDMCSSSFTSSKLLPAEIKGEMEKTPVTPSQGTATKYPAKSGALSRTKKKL
# Tyrosine-protein kinase BTK, sequence (Q06187 whole entry): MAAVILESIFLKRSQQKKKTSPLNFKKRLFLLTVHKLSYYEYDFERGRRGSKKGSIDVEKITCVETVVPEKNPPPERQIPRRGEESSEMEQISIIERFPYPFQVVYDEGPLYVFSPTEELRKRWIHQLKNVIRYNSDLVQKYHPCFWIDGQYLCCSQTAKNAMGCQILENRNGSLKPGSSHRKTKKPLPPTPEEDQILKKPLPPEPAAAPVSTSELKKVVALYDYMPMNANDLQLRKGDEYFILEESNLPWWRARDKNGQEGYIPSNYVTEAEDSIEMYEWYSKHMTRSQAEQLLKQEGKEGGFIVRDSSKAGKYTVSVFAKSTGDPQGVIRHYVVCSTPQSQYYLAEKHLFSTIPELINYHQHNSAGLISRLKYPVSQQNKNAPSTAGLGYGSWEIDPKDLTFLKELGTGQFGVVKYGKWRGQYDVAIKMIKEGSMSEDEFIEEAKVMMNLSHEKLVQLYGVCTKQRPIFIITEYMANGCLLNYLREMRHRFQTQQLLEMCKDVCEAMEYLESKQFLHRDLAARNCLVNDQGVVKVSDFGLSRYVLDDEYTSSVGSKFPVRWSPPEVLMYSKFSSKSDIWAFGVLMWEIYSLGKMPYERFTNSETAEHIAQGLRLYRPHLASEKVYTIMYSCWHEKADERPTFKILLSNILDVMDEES
# Dual specificity protein kinase CLK2, sequence (P49760 whole entry): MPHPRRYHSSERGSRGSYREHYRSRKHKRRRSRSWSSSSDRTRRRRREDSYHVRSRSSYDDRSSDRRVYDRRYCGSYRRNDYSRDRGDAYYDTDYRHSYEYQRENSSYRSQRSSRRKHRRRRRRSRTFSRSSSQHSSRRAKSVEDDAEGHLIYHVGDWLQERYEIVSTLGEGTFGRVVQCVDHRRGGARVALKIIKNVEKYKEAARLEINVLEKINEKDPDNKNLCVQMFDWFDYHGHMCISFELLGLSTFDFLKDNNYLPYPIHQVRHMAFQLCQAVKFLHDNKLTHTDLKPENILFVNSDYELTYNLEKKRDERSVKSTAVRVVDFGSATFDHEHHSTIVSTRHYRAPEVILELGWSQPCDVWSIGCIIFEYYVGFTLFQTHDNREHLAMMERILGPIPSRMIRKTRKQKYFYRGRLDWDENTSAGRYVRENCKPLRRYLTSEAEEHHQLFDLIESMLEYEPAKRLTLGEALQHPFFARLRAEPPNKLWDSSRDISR
SMILES,Kd [1] [µM],Kd [2] [µM],Kd [3] [µM],Kd [4] [µM],Kd [5] [µM],Kd [6] [µM],Kd [7] [µM],Kd [8] [µM],Kd [9] [µM]
COCC(=O)NC/C=C/c1ccc2ncnc(Nc3ccc(Oc4ccc(C)nc4)c(C)c3)c2c1 [CP-724714],> 10,> 10,> 10,> 10,> 10,> 10,> 10,> 10,> 10
CCOc1cc2ncc(C#N)c(Nc3ccc(F)c(Cl)c3)c2cc1NC(=O)/C=C/CN(C)C [PELITINIB],1.8,4.9,–,> 10,–,> 10,> 10,> 10,> 10
NC(=O)c1ccc(-c2nc(-c3ccc4c(c3)OCO4)c(-c3ccccn3)[nH]2)cc1 [SB-431542],> 10,> 10,> 10,> 10,> 10,> 10,> 10,> 10,> 10
Nc1nc(Nc2ccc(S(N)(=O)=O)cc2)nn1C(=O)c1c(F)cccc1F [JNJ-7706621],–,–,> 10,–,–,–,9.2,> 10,–
Oc1ccc(-c2nc(-c3ccncc3)c(-c3ccc(F)cc3)[nH]2)cc1 [SB-202190],> 10,> 10,> 10,> 10,> 10,> 10,> 10,> 10,> 10
